These results are taken from ChEMBL document CHEMBL5096165, “Histone deacetylase 2: A potential therapeutic target for cancer and neurodegenerative disorders” (Eur J Med Chem, 2021).

For one test, the target named is Histone deacetylase 9 (Homo sapiens, UniProt Q9UKV0).
Test [1] addresses T1, Polyamine deacetylase HDAC10 (Homo sapiens, UniProt Q969S8).
T1 sequence (Q969S8 whole entry): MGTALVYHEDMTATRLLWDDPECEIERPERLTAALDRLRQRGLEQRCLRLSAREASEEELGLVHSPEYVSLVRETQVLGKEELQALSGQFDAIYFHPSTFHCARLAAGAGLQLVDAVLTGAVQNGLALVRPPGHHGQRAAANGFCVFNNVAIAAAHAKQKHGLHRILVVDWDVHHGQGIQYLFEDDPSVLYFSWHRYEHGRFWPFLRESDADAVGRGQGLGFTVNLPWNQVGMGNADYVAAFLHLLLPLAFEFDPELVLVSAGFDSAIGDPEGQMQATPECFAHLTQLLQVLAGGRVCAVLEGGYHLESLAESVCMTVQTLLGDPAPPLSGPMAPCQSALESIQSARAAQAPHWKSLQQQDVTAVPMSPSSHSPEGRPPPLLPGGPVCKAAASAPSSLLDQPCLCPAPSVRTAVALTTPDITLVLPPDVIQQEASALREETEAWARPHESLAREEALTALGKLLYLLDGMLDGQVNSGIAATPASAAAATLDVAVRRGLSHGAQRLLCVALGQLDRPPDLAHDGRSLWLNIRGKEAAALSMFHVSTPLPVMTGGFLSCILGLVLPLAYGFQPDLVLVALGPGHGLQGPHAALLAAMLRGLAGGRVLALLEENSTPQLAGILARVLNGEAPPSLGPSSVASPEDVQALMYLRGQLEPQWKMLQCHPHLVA
Description: Inhibition of HDAC10 (unknown origin)

The target of a further test is Histone deacetylase 5 (Homo sapiens, UniProt Q9UQL6).
Histone deacetylase 5, sequence (Q9UQL6 whole entry): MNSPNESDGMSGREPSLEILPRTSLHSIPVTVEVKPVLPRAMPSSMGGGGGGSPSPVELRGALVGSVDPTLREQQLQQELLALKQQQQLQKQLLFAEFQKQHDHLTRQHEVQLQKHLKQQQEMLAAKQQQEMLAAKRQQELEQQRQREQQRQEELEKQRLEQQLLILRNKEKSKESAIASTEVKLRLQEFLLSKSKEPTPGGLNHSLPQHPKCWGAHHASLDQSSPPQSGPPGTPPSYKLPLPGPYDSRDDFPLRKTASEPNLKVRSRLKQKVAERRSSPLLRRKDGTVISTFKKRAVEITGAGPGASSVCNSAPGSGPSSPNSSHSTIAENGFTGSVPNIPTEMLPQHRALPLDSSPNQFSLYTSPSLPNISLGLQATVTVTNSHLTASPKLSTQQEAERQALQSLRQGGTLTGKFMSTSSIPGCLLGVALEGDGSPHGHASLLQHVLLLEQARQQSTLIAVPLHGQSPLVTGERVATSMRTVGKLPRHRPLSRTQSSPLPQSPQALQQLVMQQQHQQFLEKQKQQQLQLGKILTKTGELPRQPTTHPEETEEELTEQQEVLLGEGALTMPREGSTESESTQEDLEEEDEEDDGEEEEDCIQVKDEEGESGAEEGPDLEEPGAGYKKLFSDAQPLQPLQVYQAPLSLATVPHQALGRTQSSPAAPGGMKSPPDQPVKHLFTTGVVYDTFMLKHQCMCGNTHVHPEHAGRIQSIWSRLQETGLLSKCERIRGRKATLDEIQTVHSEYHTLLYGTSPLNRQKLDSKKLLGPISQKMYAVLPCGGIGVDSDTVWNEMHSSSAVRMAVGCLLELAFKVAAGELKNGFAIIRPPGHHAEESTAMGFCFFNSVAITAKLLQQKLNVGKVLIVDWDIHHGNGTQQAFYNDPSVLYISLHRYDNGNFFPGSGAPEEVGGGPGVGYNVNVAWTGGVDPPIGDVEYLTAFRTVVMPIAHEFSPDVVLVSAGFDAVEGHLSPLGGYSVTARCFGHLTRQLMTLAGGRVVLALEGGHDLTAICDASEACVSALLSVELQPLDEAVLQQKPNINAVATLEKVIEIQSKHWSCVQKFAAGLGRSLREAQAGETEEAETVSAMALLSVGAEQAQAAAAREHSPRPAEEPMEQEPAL

Histone deacetylase 9, sequence (Q9UKV0 whole entry): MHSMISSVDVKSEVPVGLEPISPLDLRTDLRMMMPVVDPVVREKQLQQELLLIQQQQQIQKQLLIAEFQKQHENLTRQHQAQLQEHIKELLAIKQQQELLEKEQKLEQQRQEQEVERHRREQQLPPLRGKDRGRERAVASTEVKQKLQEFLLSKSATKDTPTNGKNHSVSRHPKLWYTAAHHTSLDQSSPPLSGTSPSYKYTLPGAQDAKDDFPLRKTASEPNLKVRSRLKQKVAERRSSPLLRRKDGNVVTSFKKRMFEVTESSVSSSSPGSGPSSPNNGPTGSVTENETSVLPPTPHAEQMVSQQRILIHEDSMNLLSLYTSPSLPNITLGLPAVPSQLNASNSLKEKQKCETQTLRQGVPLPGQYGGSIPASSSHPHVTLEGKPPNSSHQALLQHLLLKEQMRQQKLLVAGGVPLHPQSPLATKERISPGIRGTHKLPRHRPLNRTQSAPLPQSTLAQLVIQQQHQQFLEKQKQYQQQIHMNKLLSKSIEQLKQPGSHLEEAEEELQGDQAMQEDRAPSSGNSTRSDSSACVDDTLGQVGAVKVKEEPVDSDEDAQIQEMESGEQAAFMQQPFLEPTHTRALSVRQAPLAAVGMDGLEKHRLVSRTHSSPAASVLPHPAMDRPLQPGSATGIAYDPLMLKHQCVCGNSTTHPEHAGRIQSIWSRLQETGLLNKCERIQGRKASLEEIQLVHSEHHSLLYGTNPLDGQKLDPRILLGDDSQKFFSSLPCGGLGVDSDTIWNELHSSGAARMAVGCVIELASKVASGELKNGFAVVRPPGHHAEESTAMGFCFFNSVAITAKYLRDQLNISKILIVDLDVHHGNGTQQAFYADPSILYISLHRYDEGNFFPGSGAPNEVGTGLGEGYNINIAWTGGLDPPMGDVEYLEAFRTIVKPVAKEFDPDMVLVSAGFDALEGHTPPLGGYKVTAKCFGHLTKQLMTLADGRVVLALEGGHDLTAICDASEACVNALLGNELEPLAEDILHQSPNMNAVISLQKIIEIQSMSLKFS
Description for Histone deacetylase 5: Inhibition of HDAC5 (unknown origin)
Description for Histone deacetylase 9: Inhibition of HDAC9 (unknown origin)

Take `Cn1cc(-c2ccc(S(=O)(=O)n3ccc(/C=C/C(=O)Nc4ccccc4N)c3)cc2)cn1` [DOMATINOSTAT]: the IC50 (commonly the midpoint of a concentration-inhibition curve) against Histone deacetylase 9 was determined as 50 µM; in test [1], 21 µM.
With `Cn1cc(CNCC2CCN(c3ncc(C(=O)NO)cn3)CC2)c2ccccc21` [QUISINOSTAT], the IC50 amounted to 0.00369 µM on Histone deacetylase 5 and 0.00046 µM in test [1].
